“And” between values parts separate entries of the source, which are not always exact repeats. Identical values can stand only once. Like-named read-outs stand apart in the source and are kept apart here. Marks after values point to notes of the source that are not given here.
Columns and labels:
[1] = tested on: Plasmodium falciparum PH3; test: In vitro analysis versus strains of Plasmodium falciparum: PH3; assay type: cell-based
[2] = tested on: Plasmodium falciparum V1S; test: microbe, parasite or virus in culture; assay type: cell-based
[3] = tested on: Plasmodium falciparum DD2; test: In vitro analysis versus strains of Plasmodium falciparum: DD2; assay type: cell-based
[4] = tested on: Plasmodium falciparum TM4; test: In vitro analysis versus strains of Plasmodium falciparum: TM4; assay type: cell-based
[5] = tested on: Plasmodium falciparum GC03; test: In vitro analysis versus strains of Plasmodium falciparum: GC03; assay type: cell-based
[6] = tested on: Plasmodium falciparum HB3; test: In vitro analysis versus strains of Plasmodium falciparum: HB3; assay type: cell-based
Plasmodium falciparum K1 = test: In vitro analysis versus strains of Plasmodium falciparum: K1; assay type: cell-based; conditions: K1 strain
Plasmodium yoelli = test: 4-day Peter's suppressive test; assay type: in vivo; conditions: 4-day Peter's test, mice
Method: Selections of the compounds were screened for in vivo activity. In vivo data (Table 6) was determined using 30 mg/kg oral (po) and subcutaneous (sc) doses in a 4-days Peter's test. For subcutaneous administration, compounds were dissolved in 10% dimethylsulfoxide (DMSO) 0.05% Tween 80 (Sigma, Dorset, UK) in distilled water. For oral administration, compounds were dissolved in standard suspending formula (SSV) [0.5% sodium carboxymethylcellulose, 0.5% benzyl alcohol, 0.4% Tween 80, 0.9% NaCl (all Sigma)]. Subcutaneous (s.c) or oral (p.o) treatment was done with 0.2 ml of a solution of the test compound two hours (day 0) and on days 1, 2, and 3 post infections. Parasitaemia was determined by microscopic examination of Giemsa stained blood films taken on day 4. Microscopic counts of blood films from each mouse were processed using MICROSOFT@EXCELL spreadsheet (Microsoft Corp.) and expressed as percentage of inhibition from the arithmetic mean parasitaemias of each group in relation to the untreated group.

[7] = tested on: 3D7 strain of Plasmodium falciparum; test: In vitro antimalarial activity, 48-h [3H]-hypoxanthine incorporation assay; assay type: cell-based
Method: The 3D7 strain of Plasmodium falciparum was used in this study. This strain is known to be […] Parasites were maintained in continuous culture using the method of Jensen and Trager^4. […] Stock drug solutions were prepared in 100% dimethylsulphoxide (DMSO) and diluted to the appropriate concentration using complete medium. Assays were performed in sterile 96-well microlitre plates, each plate contained 200 μl of parasite culture (2% parasitemia, 0.5% haematocrit) with or without 10 μl drug dilutions. Each drug was tested in triplicate and parasite growth compared to control wells (which constituted 100% parasite growth). […] IC50 values were calculated by interpolation of the probit transformation of the log dose-response curve.

P. berghei ANKA [8] = test: In vivo dose response screening against P. berghei ANKA; design: species or system mice; conditions: for ED50: Plasmodium berghei
Method: Compound 29c, 29h and 291 were then subjected to dose response experiment against the P. berghei ANKA and the results are summarized in Table 7 below.

P. berghei ANKA [9] = test: as above; conditions: P. berghei ANKA infected mice, Table 9; for ED90: sigmoidal curve calculation
[10] = tested on: H9c2(2-1) Myocardium, heart; test: Cellular cytotoxicity screen, Resazurin reduction; assay type: cell-based, rat; conditions: H9c(2-1); for Theraputic Index (TI): ratio TOX 50 to IC50 against 3D7 P. falciparum
Source text: (§1) Values represent Tox 50 in μM. Cytotoxicity measured by Resazurin reduction.
(§2) Single full dose response curves generated using 10 independent drug concentrations. The 100 therapeutic index (TI) is the ration of the TOX 50 to the IC50 for the specific compound against the 3D7 P. falciparum isolate. The primary hepatocytes have demonstrable drug metabolising activity. The tetraoxane derivatives are remarkably non-toxic in these screens with in vitro TIs of between 5000 to 17000!.

[11] = tested on: L6 Sketal muscle myoblast; test: Cellular cytotoxicity screen, Resazurin reduction; assay type: cell-based, rat; conditions: for Theraputic Index (TI): ratio TOX 50 to IC50 against 3D7 P. falciparum
Source text: as §1, §2

[12] = tested on: HepG2 Human hepatocyte carcinoma; test: Cellular cytotoxicity screen, Resazurin reduction; assay type: cell-based; conditions: Hep2G; for Theraputic Index (TI): ratio TOX 50 to IC50 against 3D7 P. falciparum
Source text: as §1, §2

[13] = tested on: MRC-5 Embryonal lung, diploid; test: Cellular cytotoxicity screen, Resazurin reduction; assay type: cell-based, Human; conditions: for Theraputic Index (TI): ratio TOX 50 to IC50 against 3D7 P. falciparum
Source text: as §1, §2

Vero Kidney = test: Cellular cytotoxicity screen, Resazurin reduction; assay type: cell-based, African green monkey, Cercopithecus aethiops; conditions: for Theraputic Index (TI): ratio TOX 50 to IC50 against 3D7 P. falciparum
Source text: as §1, §2

[14] = tested on: Salmonella typhimurium TA1535/pSK1002; test: Salmonella typhimurium SOS/umu genotoxicity assay; conditions: for Max. Fold Increase / Potential genotox: −S9; for genotoxicity result in SOS/umu assay: both strains TA1535/pSK1002 and NM2009, highest concentration tested 50 μM, absence and presence of S-9 mix
Source text: (§3) This assay is based on the ability of DNA damaging agents to induce the expression of the umu operon. The Salmonella strains have a plasmid pSK1002 which carries an umuC-lacZ fused gene that produces a hybrid protein with β-galactosidase activity and whose expression is controlled by the umu regulatory region.

[15] = tested on: Salmonella typhimurium NM2009; test: Salmonella typhimurium SOS/umu genotoxicity assay; conditions: for Max. Fold Increase / Potential genotox: −S9
Source text: as §3

[16] = Timed iron degradation stability, FeBr2 in THF; assay type: physicochemical; conditions: ferrous bromide/THF
Source text: The resulting residue was purified by flash column chromatography and the % recovery of starting endoperoxide calculated (Table 15).

[17] = 3D7, 3D7 strain, mean of triplicate results, Table 5, read-out: Mean IC50
[18] = Chloroquine Resistant Strains of the P. Berghei ANKA, Table 7
[19] = in Mus musculus, Chloroquine Resistant Strains of the P. Berghei ANKA, Table 7

SMILES: CCN(CC)Cc1cc(Nc2ccnc3cc(Cl)ccc23)ccc1O [AM, Amodiaquine, reference compound]
- IC50 ([1]; PH3 strain, read-out: IC50): 4.7 nM
- IC50 [2]: 7.7 nM
- IC50 ([3]; DD2 strain, read-out: IC50): 6.1 nM
- IC50 ([4]; TM4 strain, read-out: IC50): 6.4 nM
- IC50 ([5]; GC03 strain, read-out: IC50): 4.5 nM
- IC50 ([6]; HB3 strain, read-out: IC50): 5.9 nM
- IC50 (Plasmodium falciparum K1): 10.2 nM

SMILES: CO[C@H]1O[C@@H]2O[C@@]3(C)CC[C@H]4[C@H](C)CC[C@@H]([C@H]1C)[C@@]24OO3 [Artemether, artemether, reference compound]
- Percentage of inhibition at 30 mg/kg (p.o) (Plasmodium yoelli): 100%
- IC50 [7, 17]: 1.7 nM
- IC50 ([7]; 3D7, sulfonamide dispiro 1,2,4,5-tetraoxanes, Table 8, read-out: Mean IC50): 3.2 nM
- ED90 (P. berghei ANKA [8]; [18]): 10.57 mg/kg
- ED50 (P. berghei ANKA [8]; [19]): 5.88 mg/kg

SMILES: C[C@H]1[C@H](OC(=O)CCC(=O)O)O[C@@H]2O[C@@]3(C)CC[C@H]4[C@H](C)CC[C@@H]1[C@@]24OO3 [Artesunate, artesunate]
- Percentage of inhibition at 30 mg/kg (p.o) (Plasmodium yoelli): 100%
- IC50 [1]: 0.9 nM
- ED50 (P. berghei ANKA [9]): 2.90 mg/kg
- ED90 (P. berghei ANKA [9]): 17.78 mg/kg and 16.67 mg/kg
- ED50 (P. berghei ANKA [9]; Plasmodium berghei, in Mus musculus): 3.2 mg/kg

SMILES: CCN(CC)CCCC(C)Nc1ccnc2cc(Cl)ccc12 (stereo not drawn) [Chloroquine, reference compound]
- IC50 [1]: 72 nM
- IC50 [2]: 83.7 nM
- IC50 ([3]; DD2): 80.5 nM
- IC50 [4]: 91.3 nM
- IC50 [5]: 8.1 nM
- IC50 ([6]; HB3): 6.6 nM
- IC50 ([7]; 3D7, read-out: Mean IC50): 8.5 nM

SMILES: COc1cccc2c1C(=O)c1c(O)c3c(c(O)c1C2=O)C[C@@](O)(C(=O)CO)C[C@@H]3O[C@H]1C[C@H](N)[C@H](O)[C@H](C)O1 [Doxorubicin]
- Tox 50 [10]: 3 µM
- Tox 50 [11]: >5 µM
- Tox 50 [12]: 0.3 µM
- Tox 50 [13]: 2 µM
- Tox 50 (Vero Kidney): >5 µM

SMILES: Nc1ccc2cc3ccccc3cc2c1 [Tetraoxane 2Aan, 2-Aminoanthracene, reference compound]
- solubility (physchem): 5 µg/mL
- MCE TA1535 (Maximum Co w/o effects on bacteria growth or β-galactosidase production) ([14]; positive controls): 5 µg/mL
- Max. Fold Increase [14]: 1.10 ± 0.11 fold
- Potential genotox [14]: NEG
- MCE NM2009 (Maximum Co w/o effects on bacteria growth or beta-galactosidase production) ([15]; in the presence of rat S9): 0.31* μg/mL
- Max. Fold Increase [15]: 1.08 ± 0.01 fold
- Potential genotox [15]: NEG

SMILES: O=C(CC1CCC2(CC1)OOC1(CCCCC1)OO2)NC1CC1 [Tetraoxane 27c, N-Cyclopropyl-2-(7,8,15,16-tetraoxa-dispiro[5.2.5.2]hexadec-3-yl)-acetamide]
- Percentage of inhibition at 30 mg/kg (p.o) (Plasmodium yoelli): 24.8%
- melting point: 148 to 150 °C

SMILES: O=C(CC1CCC2(CC1)OOC1(CCCCC1)OO2)N1CCOCC1 [Tetraoxane 27h, 1-Morpholin-4-yl-2-(7,8,15,16-tetraoxa-dispiro[5.2.5.2]hexadec-3-yl)-ethanone]
- Percentage of inhibition at 30 mg/kg (p.o) (Plasmodium yoelli): 33.0%
- melting point: 126 to 128 °C
- IC50 [7, 17]: 22.2 nM

SMILES: O=C(CC1CCC2(CC1)OOC1(OO2)C2CC3CC(C2)CC1C3)NC1CC1 (stereo not drawn) [Tetraoxane 29c, Adamantyl-N-Cyclopropyl tetraoxane acetamide]
- Percentage of inhibition at 30 mg/kg (p.o) (Plasmodium yoelli): 100%
- melting point: 140 to 142 °C
- IC50 [7, 17]: 2.3 nM
- ED90 (P. berghei ANKA [8]; [18]): 20.33 mg/kg
- ED50 (P. berghei ANKA [8]; [19]): 10.3 mg/kg

SMILES: O=C(CC1CCC2(CC1)OOC1(OO2)C2CC3CC(C2)CC1C3)N1CCOCC1 (stereo not drawn) [Tetraoxane 29h, Adamantly-1-Morpholin-4-yl tetraoxane acetamide]
- solubility (physchem): 50 µM
- Percentage of inhibition at 30 mg/kg (p.o) (Plasmodium yoelli): 100%
- IC50 ([1]; PH3 strain, read-out: IC50): 0.3 nM
- MCE TA1535 (Maximum Co w/o effects on bacteria growth or β-galactosidase production) ([14]; Salmonella typhimurium): 50 µM
- genotoxicity result in SOS/umu assay [14]: Negative
- Max. Fold Increase [14]: 1.04 ± 0.04 fold
- Potential genotox [14]: NEG
- MCE NM2009 (Maximum Co w/o effects on bacteria growth or beta-galactosidase production) ([15]; Salmonella typhimurium): 50 µM
- Max. Fold Increase [15]: 1.22 ± 0.03 fold
- Potential genotox [15]: NEG
- IC50 ([3]; DD2 strain, read-out: IC50): 0.6 nM
- Tox 50 [10]: >50 µM
- Theraputic Index (TI) [10]: >16666
- Tox 50 [11]: 23 µM
- Theraputic Index (TI) [11]: 7666
- Tox 50 [12]: >50 µM
- Theraputic Index (TI) [12]: >16666
- IC50 ([4]; TM4 strain, read-out: IC50): 0.6 nM
- melting point: 139 to 140 °C
- Tox 50 [13]: >50 µM
- Theraputic Index (TI) [13]: >16666
- Tox 50 (Vero Kidney): >50 µM
- Theraputic Index (TI) (Vero Kidney): >16666
- IC50 ([5]; GC03 strain, read-out: IC50): 0.9 nM
- IC50 ([6]; HB3 strain, read-out: IC50): 1.4 nM
- IC50 (Plasmodium falciparum K1): 0.8 nM
- IC50 ([7]; 3D7, read-out: Mean IC50): 5.2 nM
- ED90 (P. berghei ANKA [8]; [18]): 3.88 mg/kg
- ED50 (P. berghei ANKA [8]; [19]): 3.18 mg/kg

SMILES: CN1CCN(C(=O)CC2CCC3(CC2)OOC2(OO3)C3CC4CC(C3)CC2C4)CC1 (stereo not drawn) [Tetraoxane 29l]
- Percentage of inhibition at 30 mg/kg (p.o) (Plasmodium yoelli): 100%
- IC50 [7, 17]: 0.5 nM
- ED50 (P. berghei ANKA [8]; [19]): 2.7 mg/kg

SMILES: O=S(=O)(C1CC1)N1CCC2(CC1)OOC1(OO2)C2CC3CC(C2)CC1C3 [Tetraoxane 39d]
- solubility (physchem): 50 µM
- MCE TA1535 (Maximum Co w/o effects on bacteria growth or β-galactosidase production) ([14]; Salmonella typhimurium): 50 µM
- genotoxicity result in SOS/umu assay [14]: Negative
- Max. Fold Increase [14]: 1.05 ± 0.09 fold
- Potential genotox [14]: NEG
- MCE NM2009 (Maximum Co w/o effects on bacteria growth or beta-galactosidase production) ([15]; Salmonella typhimurium): 50 µM
- Max. Fold Increase [15]: 1.09 ± 0.03 fold
- Potential genotox [15]: NEG
- ED90 (P. berghei ANKA [9]): 49.77 mg/kg
- Tox 50 [10]: >50 µM
- Theraputic Index (TI) [10]: >14285
- Tox 50 [11]: >50 µM
- Theraputic Index (TI) [11]: >14285
- Tox 50 [12]: >50 µM
- Theraputic Index (TI) [12]: >14285
- Tox 50 [13]: >50 µM
- Theraputic Index (TI) [13]: >14285
- Tox 50 (Vero Kidney): >50 µM
- Theraputic Index (TI) (Vero Kidney): >14285
- IC50 ([7]; 3D7, read-out: Mean IC50): 3.52 nM
- ED50 (P. berghei ANKA [8]; P. berghei ANKA infected mice, Table 9): 7.93 mg/kg

SMILES: O=S(=O)(c1ccccc1)N1CCC2(CC1)OOC1(O2)C2CC3CC(C2)CC1C3 (stereo not drawn) [Tetraoxane 42]
- degradation ([16]; after 4 h): ~90%
- turnover ([16]; after 48 h): 100%

SMILES: O=S(=O)(c1ccccc1)N1CCC2(CC1)COC1(OO2)C2CC3CC(C2)CC1C3 (stereo not drawn) [Tetraoxane 43]
- degraded ([16]; after 48 h): 57%
